Data taken from patent publication US20070140972A1, “Targeting compositions and preparation therof” (CTT CANSER TARGETING TECHNOLOGIES OY, priority 2003, published 2007).
Where a SMILES comes first, the peptide text is derived from it.

How the values were obtained:
tumour cell migration = experiment: Inhibition of tumour cell migration; format: cell-based; conditions: versus wild type CTT2 peptide
[1] = tested on: human ovarian carcinoma tumours (OV-90); experiment: Biodistribution of I-125 labelled 6F-Trp CTT2 peptide in OV-90 tumour mice (gamma counting); format: in vivo; conditions: 30 min and 180 min; clearance comparable to blood
Protocol: FIG. 8. The biodistribution study of I-125 labelled 6F-Trp CTT2 ([…][6-fluoro]WGFTLC)-peptide. The in vivo biodistribution of the ^125I-labeled peptide was assessed at two time points in NMRI/nude mice carrying human ovarian tumours on their lower back. Results are expressed as percentage of injected dose per 1 g tissue (% ID/1 g). All values are indicated as mean±SD of 5 mice.
The 6F-Trp CTT2 peptide was used in biodistribution study to evaluate its kinetic and tumour targeting properties. The study was performed in mice with established human ovarian carcinoma tumours (OV-90). The 6F-Trp CTT2 peptide was labelled with iodine-125. 40 μg of purified and labelled peptide (˜1 MBq) was injected into the tail vein of mice. 30 min and 180 min after peptide injection mice were sacrificed and blood and tissue samples were collected. The accumulated radioactivity was determined with gamma counter.

[2] = Serum stability of CTT2 derivative; format: in vitro ADME; conditions: versus wild type CTT2 peptide
A2780 cells = experiment: Therapeutic efficacy (survival) in A2780 xenograft mice; format: in vivo, NMRI nude female mice; conditions: three injections in three-day intervals; sacrificed when tumour exceeded 1000 mm^3
Protocol: A2780 cells were injected subcutaneously into the posterior flanks of 50 NMRI nude female mice. The mice were randomly allocated into five treatment groups. […] In this study, the mice received three drug injections of 9 mg liposomal or free doxorubicin/kg in three-day intervals.
The mice were weighed and their tumour sizes were measured twice a week after treatment initiation. When tumour sizes exceeded 1000 mm^3 the mice were sacrificed.

SMILES: CC(C)C[C@@H]1NC(=O)[C@H]([C@@H](C)O)NC(=O)[C@H](Cc2ccccc2)NC(=O)CNC(=O)C(Cc2c[nH]c3cc(F)ccc23)NC(=O)[C@H](Cc2c[nH]cn2)NC(=O)[C@H]([C@@H](C)O)NC(=O)[C@H]([C@@H](C)O)NC(=O)[C@@H](NC(=O)CNC(=O)[C@H](Cc2c[nH]cn2)NC(=O)[C@H](Cc2ccc(O)cc2)NC(=O)[C@H](CC(N)=O)NC(=O)[C@H](CCC(=O)O)NC(=O)[C@H](CCCNC(=N)N)NC(=O)CN)CSSC[C@@H](C(N)=O)NC1=O (stereo partly drawn) [6F-Trp CTT2, GRENYHG-Cyclo(CTTH(d,l-6-Fluoro-W)GFTLC)-NH2] (HELM PEPTIDE1{G.R.E.N.Y.H.G.C.T.T.H.[O=C(C(Cc1c[nH]c2cc(F)ccc12)N[*:1])[*:2]].G.F.T.L.C.[am]}$PEPTIDE1,PEPTIDE1,8:R3-17:R3$$$V2.0; N-terminus assumed)
- ability to inhibit tumour cell migration in comparison to the wild type peptide (tumour cell migration): improved ability to inhibit tumour cell migration
- accumulation of radioactivity in all other organs [1]: negligible
- serum stability in comparison to the wild type peptide [2]: enhancement in serum stability

SMILES: COc1cccc2c1C(=O)c1c(O)c3c(c(O)c1C2=O)C[C@@](O)(C(=O)CO)C[C@@H]3O[C@H]1C[C@H](N)[C@H](O)[C@H](C)O1 [free doxorubicin, doxorubicin]
- survival status by five weeks after treatment initiation (A2780 cells): had been sacrificed
